Experiments:
Assay type in all cases: ADME, organism-based
[1] = Clearance in Balb/c mouse at 1 mg/kg, po and 0.1 mg/kg, iv; conditions: in vivo
[2] = Plasma concentration in Balb/c mouse at 10 mg/kg to 100 mg/kg, po after 4 hrs
[3] = AUC in Balb/c mouse at 1 mg/kg, po; conditions: in vivo
[4] = Oral bioavailability in Balb/c mouse at 1 mg/kg; conditions: in vivo

SMILES	clearance [1] [mL/min/kg]	concentration at 4 h [2] [nM]	AUC [3] [ng·h/mL]	bioavailability [4] [%]
C[C@H](c1ccccc1)N1c2cc(-n3c(=O)[nH]c4ncccc43)ccc2C(=O)NC1(C)C	27.3	2000	172	28
CC1(C)NC(=O)c2ccc(-n3c(=O)[nH]c4ncccc43)cc2N1Cc1ccccc1	143	–	16	12
C[C@@H](c1ccccc1)N1c2cc(-n3c(=O)[nH]c4ncccc43)ccc2C(=O)NC1(C)C	107	–	11	7

— ChEMBL document CHEMBL3797131, “Discovery and optimization of 1,7-disubstituted-2,2-dimethyl-2,3-dihydroquinazolin-4(1H)-ones as potent and selective PKCθ inhibitors” (Bioorg Med Chem, 2016)
